The results in this text go back to patent publication US20120083522A1, “MODULATION OF INFLAMMATORY RESPONSES BY FACTOR XI” (Isis Pharmaceuitcals, inc., priority 2009, published 2012).

“Also recorded” adds a separate entry of the source. In the oligonucleotide strings, read from the 5' end, every base follows the letter of its sugar. An asterisk marks phosphorothioate; unmarked linkages are phosphodiester. Other units and linkages are bracketed, terminal groups are in braces. A string of capitals states the bases alone. e = 2'-O-(2-methoxyethyl) (MOE); [5mC] = 5-methylcytosine; d = 2'-deoxy (DNA) Bounds are passed on as bounds.

A short description of series [1]: Tolerability in CD1 mice: organ weight (Example 17). Format: in vivo. Particulars: 50 mg/kg s.c. twice a week, 2 weeks, vs PBS control, normalized to body weight. On the procedure: Three days after the last dose was administered to all groups, the mice were sacrificed.
Series [2] is described as follows: Cynomolgus monkeys: body and organ weights (Example 29). The format is in vivo. As to the method:
Groups, each consisting of two male and three female monkeys, were injected subcutaneously with ISIS 416838, ISIS 416850, ISIS 416858, ISIS 416864, or ISIS 417002 in escalating doses. Antisense oligonucleotide was administered to the monkeys at 5 mg/kg three times per a week for week 1; 5 mg/kg twice per week for weeks 2 and 3; 10 mg/kg three times per week for week 4; 10 mg/kg twice per week for weeks 5 and 6; 25 mg/kg three times per week for week 7; and 25 mg/kg twice per week for weeks 8, 9, 10, 11, and 12. One control group, consisting of two male and three female monkeys, was injected subcutaneously with PBS according to the same dosing regimen. An additional experimental group, consisting of two male and three female monkeys, was injected subcutaneously with ISIS 416850 in a chronic, lower dose regimen. Antisense oligonucleotide was administered to the monkeys at 5 mg/kg three times per week for week 1; 5 mg/kg twice per week for week 2 and 3; 10 mg/kg three times per week for week 4; and 10 mg/kg twice per week for weeks 5 to 12. Body weights were measured weekly. Blood samples were collected 14 days and 5 days before the start of treatment and subsequently once per week for Factor XI protein activity analysis in plasma and measurement of various hematologic factors. On day 85, the monkeys were euthanized by exsanguination while under deep anesthesia, and organs harvested for further analysis.
Body weights were taken once weekly throughout the dosing regimen. […] Organ weights were taken after the animals were euthanized and livers, kidneys and spleens were harvested and weighed. […] The ISIS oligonucleotide, ISIS 416850, given with the chronic dose regimen is distinguished from the other oligonucleotides with an asterisk (*).

Series [3] deals with DSS-induced colitis model. Briefly: Colitis Study A: colon tissue histopathology.
The subject of series [4] is collagen-induced arthritis (CIA) model. Briefly: Arthritis Study A: collagen-induced arthritis (Example 11). The format is in vivo, DBA/1J mice. As to conditions: for incidence of CIA (in words): 20 mg/kg. On the procedure: The effect of inhibition of Factor XI and its role in fibrin accumulation in the joints leading to joint inflammation and rheumatoid arthritis was evaluated in a murine collagen-induced arthritis (CIA) model. […] Arthritis induced in mice administered collagen can be visually assessed and clinically scored as described by Marty et al. (J Clin Invest, 107:631-640, 2001) where 1 point is given for each swollen digit except the thumb (maximum, 4), 1 point is given for the tarsal or carpal joint, and 1 point is given for the metatarsal or metacarpal joint with a maximum score of […]. Each paw was graded individually, the cumulative clinical arthritic score per mouse reaching a maximum of 22 points
In a group of 15 DBA/1J mice, 20 mg/kg of ISIS 404071 was injected subcutaneously twice a week for 12 weeks. One control group of 15 mice was injected with 20 mg/kg of ISIS 403102 twice a week for 12 weeks. Two control groups of 15 mice each were injected with PBS twice a week for 12 weeks. Two weeks after the first oligonucleotide dose, type II bovine collagen (Chondrex Inc, Redmond, Wash.) was mixed with complete Freund's adjuvant, homogenized on ice and the emulsion, containing 100 μg of collagen, was injected subcutaneously at the base of the tail in the Factor XI group, the Factor VII group and one of the PBS control groups. A booster injection containing 100 μg collagen type II in incomplete Freund's adjuvant was injected subcutaneously at the base of the tail at a different injection site on day 21 after the first collagen injection in these groups.
Starting 35 days from the first collagen injection, mice in all groups were examined daily for the visual appearance of arthritis, such as swelling and stiffness, in peripheral joints. The results are presented in Table 20 (expressed as a percentage of the PBS control) and in FIGS. 1-3.
‘Incidence of CIA’ refers to the percentage of mice in each group that had CIA at day 40. The ‘percentage of paws affected’ refers to the percentage of paws out of a total of 60 paws in each group of mice that were affected with arthritis. ‘Average number of affected paws’ refers to the number of affected paws in mice that were diagnosed to have arthritis. The ‘clinical severity of CIA’ was scored as described by Marty et al. (J Clin Invest, 107:631-640, 2001) and as follows: 1 point for each swollen digit except the thumb (maximum, 4), 1 point for the tarsal or carpal joint, and 1 point for the metatarsal or metacarpal joint with a maximum score of 6 for a hindpaw and 5 for a forepaw. Each paw was graded individually, the cumulative clinical arthritic score per mouse reaching a maximum of 22 points.

The test system of a further series is bradykinin. Put plainly: Colitis Study E: bradykinin levels in colon. The format is in vivo, Swiss Webb mice. Particulars: for Bradykinin levels in the colons: DSS-treated mice, day 7, 40 mpk. As to the method:
Two groups 8 Swiss Webb mice were dosed with 40 mg/kg of ISIS 404071 injected subcutaneously twice a week for 3 weeks. Two control groups of 8 Swiss Webb mice were dosed with PBS subcutaneously twice a week for 3 weeks. Both the ASO treated groups and one of the control groups were then given 4% DSS in distilled water for 7 days ad libitum. One of the ASO and DSS treated groups was also given intravenous injections of 20 μg of recombinant human Factor XI protein (Haematologic Technologies Inc.) for 7 consecutive days, starting the day before DSS treatment. Mice were sacrificed at the end of the study on day 7 after DSS was administered.
The effect of antisense inhibition of Factor XI on kinin levels in the colon was evaluated (Phoenix Pharmaceuticals, Burlingame, Calif.) at the end of the study on day 7 after DSS was administered and the results are presented in Table 40.

“416850 (antisense TGCACAGTTTCTGGCAGGCC; 5-10-5 gapmer, wing sugar chemistry not given here, further chemistry not given here) [compound 416850]”: in series [1], the “Percent change in kidney weight” value is reported as −10%.
In the case of “ISIS 416850: gapmer of Table 8 (antisense eT*eG*e[5mC]*eA*e[5mC]*dA*dG*dT*dT*dT*d[5mC]*dT*dG*dG*d[5mC]*eA*eG*eG*e[5mC]*e[5mC])”, the Body weight in series [2] (chronic, lower dose regimen (*) 5 then 10 mg/kg s.c., day 1) is 2665 g; in series [2] (chronic, lower dose regimen (*) 5 then 10 mg/kg s.c., day 8), 2579 g; in series [2] (chronic, lower dose regimen (*) 5 then 10 mg/kg s.c., day 15) it was 2607 g; in series [2] (chronic, lower dose regimen (*) 5 then 10 mg/kg s.c., day 22) it was 2661 g; in series [2] (chronic, lower dose regimen (*) 5 then 10 mg/kg s.c., day 29), 2667 g; in series [2] (chronic, lower dose regimen (*) 5 then 10 mg/kg s.c., day 36) it was 2656 g. The Body weight in series [2] (chronic, lower dose regimen (*) 5 then 10 mg/kg s.c., day 43) is listed as 2670 g; in series [2] (chronic, lower dose regimen (*) 5 then 10 mg/kg s.c., day 50), 2679 g; in series [2] (escalating doses 5, 10, 25 mg/kg s.c., day 1) it was 2572 g; in series [2] (escalating doses 5, 10, 25 mg/kg s.c., day 8) it was 2430 g; in series [2] (escalating doses 5, 10, 25 mg/kg s.c., day 15) it was 2474 g; in series [2] (escalating doses 5, 10, 25 mg/kg s.c., day 22), 2514 g. In addition, the Body weight in series [2] (escalating doses 5, 10, 25 mg/kg s.c., day 29) turned out to be 2515 g; in series [2] (escalating doses 5, 10, 25 mg/kg s.c., day 36), 2545 g; in series [2] (escalating doses 5, 10, 25 mg/kg s.c., day 43), 2544 g; in series [2] (escalating doses 5, 10, 25 mg/kg s.c., day 50), 2613 g; in series [2] (escalating doses 5, 10, 25 mg/kg s.c., day 57) it was 2629 g; in series [2] (escalating doses 5, 10, 25 mg/kg s.c., day 64), 2642 g. The Body weight in series [2] (escalating doses 5, 10, 25 mg/kg s.c., day 71) is on record as 2769 g; in series [2] (escalating doses 5, 10, 25 mg/kg s.c., day 78), 2660 g.
Consider “TGGTAATCCACTTTCAGAGG (eT*eG*eG*eT*eA*dA*dT*d[5mC]*d[5mC]*dA*d[5mC]*dT*dT*dT*d[5mC]*eA*eG*eA*eG*eG) [ISIS 404071, 5-10-5 MOE gapmer targeting murine Factor XI, target start site 869]”, for which the “colon histology, lesions (in words)” value in series [3] (FIG. 8) is given as “significantly fewer mucosa ulcerative lesions”; in series [3] (FIG. 8, listed as Factor XI), “significantly milder ulcerative colitis lesions”. Besides, the mucosa ulcers in series [3] (FIG. 8D, DSS control 2-4/animal) is on record as > 1 /animal. The “incidence of CIA (in words)” value in series [4] (Arthritis Study A) is recorded as “significantly inhibit the incidence of CIA”; in series [4] (Arthritis Study A, listed as Factor XI ASO) it was “lower incidence of CIA”. In addition, the “affected paws (in words)” value in series [4] (Arthritis Study A, FIG. 1B and 2A, listed as Factor XI ASO) is listed as “lower incidence of affected paws; also recorded: fewer affected paws on average”. Moreover, in series [4] (Arthritis Study A, FIG. 2B), the “arthritis severity (in words)” value is “less severe arthritis than the control mice”. Moreover, the “timeline of CIA incidence (in words)” value in series [4] (Arthritis Study A, FIG. 3) was “developed CIA at a later stage with fewer affected mice”. For the same substance, in series [4] (DBA/1J mice, 20 mg/kg s.c. twice a week for 12 weeks, in mice diagnosed with arthritis), the “Average no. of paws affected” value came out at 1. For the same substance, the “% of paws affected” value in series [4] (DBA/1J mice, 20 mg/kg s.c. twice a week for 12 weeks, out of 60 paws per group) stood at 3%. For the same substance, the “% of CIA” value in series [4] (DBA/1J mice, 20 mg/kg s.c. twice a week for 12 weeks, percentage of mice in group with CIA at day 40) was 13%. Besides, in series [4] (DBA/1J mice, 20 mg/kg s.c. twice a week for 12 weeks, score of Marty et al., maximum 22 points), the “Clinical severity of CIA” value is listed as 1. Further, the “bradykinin levels (in words)” value with bradykinin (Colitis Study E, day 7) is “decreased”. The “Bradykinin levels in the colons” value was 0.1 ng/mg in the series with bradykinin (no human recombinant FXI) and 0.3 ng/mg in the series on bradykinin (plus human recombinant FXI 20 ug/mouse/day).
